Source: patent publication US5393897A, “Isolation and structure of spongistatins 5,7,8 and 9” (Arizona Board of Regents acting on behalf of Arizona State …, priority 1993, dated 1995)
In brackets after ≈: the same amount, converted by molar mass. Read-outs that look alike come from different tables or passages of the source.

Tests used:
P388 = details: IP, Q1D × 9, female mice
[1] = tested on: 60 human tumor cell lines; details: Background on spongistatins from Spongia sp; cited from earlier work
[2] = tested on: 60 human tumor cell lines; assay: NCI in vitro primary screen, panel of 60 human tumor cell lines; type: cell-based; details: for GI50: Homo sapiens
Text: Only two hundred years ago, many diseases ravaged humankind. Many of these diseases now have been controlled or eradicated. In the development of the means to treat or control these diseases, work with the appropriate common experimental animals was of critical importance. With the various types of cancers, and with the HIV virus, such work is presently ongoing. The research for the treatment of various types of cancer is coordinated in the United States by the National Cancer Institute (NCI). NCI, as a government entity, has been charged with assisting anti-cancer research. To establish whether a substance has anti-cancer activity, NCI has established a variety of protocols, one of which involves testing the candidate substance against a cell line panel containing 60 human tumor cell lines. This protocol has been verified and is generally accepted throughout the scientific community. This protocol and the established statistical means of evaluating the results obtained therefrom have been fully described in the literature. See Principles & Practice of Oncology PPO Updates, Volume 3, Number 10, October 1989, by Michael R. Boyd, M.D., Ph.D., for an in depth description of the test protocol. The statistical analysis is explained in "Display and Analysis of Patterns of Differential Activity of Drugs Against Human Tumor Cell Lines: Development of Means Graph and COMPARE Algorithm" Journal of the National Cancer Institute Reports Vol. 81, No. 14, Pg. 1088, Jul. 14, 1989, by K. D. Paull et al. Both of these references are incorporated herein by this reference thereto. The effectiveness and validity of the NCI in vitro protocol continues to be verified.
^a All compounds were tested in quadruplicate at five different con-
entire panel of 60 human tumor cell lines comprising the NCI
^c Correlation coefficients from the Compare pattern-recognition
algorithm were calculated by computer using the TGI-centered
mean graph profiles of differential cellular sensitivities to 1, and
5. The TGI mean graph profile of 1 was used as the benchmark or
"seed" for all of the comparisons.

[3] = tested on: P388 lymphocytic leukemia cell line; assay: P388 lymphocytic leukemia cell line bioassay; type: cell-based; details: Mus musculus; PS (P388); pure compound; read-out: ED50 (the source's name)

Compound | % ILS (increase in life span over controls) (P388; 40 μg/kg/dose) | potency in NCI panel [1] | IC50 [3] | further results
C=C(Cl)/C=C/C(O)CC(=C)CC1OC2C(C)C(OC(=O)CC3CC(OC(C)=O)CC4(CC(C)(O)CC(CC(=C)C(C)C(OC(C)=O)C(C)C(=O)CC5CC(OC)CC6(CC(O)CC(/C=C\CCCC7OC(O)(CC(O)C7C)C2O)O6)O5)O4)O3)C1O (stereo not drawn) [spongistatin 1, reference compound] | -10% | one of the most extraordinarily potent substances presently known | – | % ILS (increase in life span over controls) (P388; 25 μg/kg/dose): +33%; GI50 ([2]; NCI 60 cell line panel, read-out: panel mean GI50): 0.1 nM; GI50 ([2]; quadruplicate, five concentrations, standard errors averaged less than 15% of means, read-out: Mean Panel GI50): 0.117 nM; Compare Correlation Coefficient ([2]; TGI-centered mean graph profiles, spongistatin 1 as seed): 1.00; correlation of mean-graph fingerprint with microtubule-interactive antimitotics ([2]; pattern-recognition analyses, data not shown): closely correlated
C=C(Cl)/C=C/[C@H](O)CC(=C)C[C@H]1OC2[C@@H](O)[C@]3(O)C[C@@H](O)[C@H](C)[C@H](CCC/C=C\[C@@H]4C[C@@H](O)C[C@]5(C[C@H](OC)CC(CC(=O)[C@@H](C)[C@H](OC(C)=O)[C@@H](C)C(=C)C[C@@H]6C[C@@](C)(O)C[C@]7(C[C@H](O)CC(CC(=O)O[C@@H]([C@@H]1O)[C@H]2C)O7)O6)O5)O4)O3 [spongistatin 3] | – | exceptionally potent | – | –
C=C(Cl)/C=C/[C@H](O)CC(=C)C[C@H]1OC2[C@@H](O)[C@]3(O)C[C@@H](O)[C@H](C)[C@H](CCC/C=C\[C@@H]4C[C@@H](O)C[C@]5(C[C@H](OC)CC(CC(=O)[C@@H](C)[C@H](O)[C@@H](C)C(=C)C[C@@H]6C[C@@](C)(O)C[C@]7(C[C@H](OC(C)=O)CC(CC(=O)O[C@@H]([C@@H]1O)[C@H]2C)O7)O6)O5)O4)O3 [spongistatin 4] | – | – | – | % ILS (increase in life span over controls) (P388; 5 μg/kg/dose): +55%
C=C/C=C/C(O)CC(=C)CC1OC2C(C)C(OC(=O)CC3CC(OC(C)=O)CC4(CC(C)(O)CC(CC(=C)C(C)C(O)C(C)C(=O)CC5CC(OC)CC6(CC(O)CC(/C=C\CCCC7OC(O)(CC(O)C7C)C2O)O6)O5)O4)O3)C1O (stereo not drawn) [spongistatin 6] | +70% | – | – | –
C=C/C=C/C(O)CC(=C)CC1OC2C(C)C(OC(=O)CC3CC(OC(C)=O)CC4(CC(C)(O)CC(C=C5COC(C(C)C(=O)CC6CC(OC)CC7(CC(O)CC(/C=C\CCCC8OC(O)(CC(O)C8C)C2O)O7)O6)C5C)O4)O3)C1O (stereo not drawn) [spongistatin 8] | – | – | 0.8 ng/mL (≈ 0.698 nM) | –
C=C(Cl)/C=C/C(O)CC(=C)CC1OC2C(C)C(OC(=O)CC3CC(OC(C)=O)CC4(CC(C)(O)CC(C=C5COC(C(C)C(=O)CC6CC(OC)CC7(CC(O)CC(/C=C\CCCC8OC(O)(CC(O)C8C)C2O)O7)O6)C5C)O4)O3)C1O (stereo not drawn) [spongistatin 9] | – | – | < 0.1 ng/mL | –
